Where “and” joins values, the source holds several entries; their conditions need not be identical. Equal entries are not always repeated.
What was measured:
OVX mice = experiment: Mice peripheral blood T lymphocyte subsets analysis; type: in vivo, mouse; settings: OVX mice + S3-15 4 weeks, individual animals
Description: In order to study the effect of S3-15 on the immune system, after 4 weeks of S3-15 treatment, orbital venous blood with EDTA-anticoagulated was collected for T lymphocyte subsets analysis in osteoporosis mice. We used flow cytometric to determinate T lymphocyte subsets according to the guidelines for Flow Cytometric of Beckman Coulter, FC500. Cells were stained according to manufacturer’s instruction of PE-Cyanine7 anti-Human CD8a and PE anti-Human CD4 antibodies (Tonbo Biosciences). Data analyzing was performed by using CXP software (Beckman Coulter, Supplementary Fig. 9).

T lymphocyte = T lymphocyte cell proliferation assay (CFSE, CD4+/CD8+ flow cytometry); type: cell-based, human
Procedure: T lymphocyte cell proliferation assay was performed according to a reported method[58] with some modification. Briefly, 5 × 10^6 cells /mL cells were stained 2.5 μM CFSE (Tonbo Biosciences) and incubated at 37 °C for 12 min. Then washed and discarded the supernatant and adjusted the CFSE stained cell to 1.75 × 10^6 cells /mL. Cells were diluted in 1640 completed medium containing 5 μg/mL anti-CD3 antibody (Tonbo Biosciences) to 3 × 10^5 cells/mL and seed in a 96-well plate or 24-well plate that pre-packaged 0.4 μg/well anti-CD28 antibody and 1.6 μg anti-CD28 antibody (24-well) (Tonbo Biosciences). Cells were then cultured for 3 days, 9 days or 12 days. Subsequently, the proportion of CD4^+ and CD8^+ cells was determined by flow cytometry (Beckman Coulter, FC500) according to manufacturer’s instruction of PE-Cyanine7 anti-Human CD8a and PE anti-Human CD4 antibodies (Tonbo Biosciences). Data analyzing was performed by using CXP software (Beckman Coulter, Supplementary Fig. 8).

[1] = Cancer donor 1, 3 day, S3-15 0.2
[2] = Cancer donor 1, 3 day, S3-15 10
[3] = Healthy donor 1, 3 day, S3-15 0.2
[4] = Healthy donor 1, 3 day, S3-15 1
[5] = Healthy donor 1, 3 day, S3-15 5
[6] = Healthy donor 1, 3 day, S3-15 10
[7] = Healthy donor 1, 12 day, S3-15 0.2
[8] = Healthy donor 1, 12 day, S3-15 1
[9] = Healthy donor 1, 12 day, S3-15 5

CC(=O)/C(=N\Nc1ccccc1C(=O)O)C(=O)Nc1ccccn1 [S3-15]
CD3+, % in peripheral lymphocyte (OVX mice): 36.27% and 37.35% and 37.5% and 36.96% and 36.85% and 38.5% and 35.97% and 34.6% | CD3+CD4+, % in CD3+ T cell (OVX mice): 61.95% and 60.18% and 56.07% and 64.9% and 64.44% and 61.9% and 58.71% and 64.19% | CD3+CD4+, % in peripheral lymphocyte (OVX mice): 22.2% and 22.32% and 20.69% and 23.69% and 23.71% and 23.61% and 23.29% and 21.4% | CD3+CD8+, % in CD3+ T cell (OVX mice): 30.94% and 33.61% and 35.99% and 30.67% and 29.41% and 32.61% and 35.04% and 29.24% | CD3+CD8+, % in peripheral lymphocyte (OVX mice): 11.41% and 12.7% and 13.52% and 11.4% and 10.94% and 12.69% and 10.21% and 10.64% | CD4+, % in peripheral lymphocyte (OVX mice): 22.3% and 22.29% and 20.64% and 23.66% and 23.37% and 23.65% and 23.23% and 21.42% | CD8+, % in peripheral lymphocyte (OVX mice): 11.28% and 12.51% and 13.34% and 11.29% and 10.72% and 12.52% and 9.72% and 10.53% | CD4+/CD8+ in CD3+ T cell (OVX mice; ratio): 2.002 and 1.791 and 1.558 and 2.116 and 2.191 and 1.898 and 1.676 and 2.195 | CD4+/CD8+ in peripheral lymphocyte (OVX mice; ratio): 1.946 and 1.757 and 1.53 and 2.078 (2×) and 2.167 and 1.861 and 2.011 | CD8+ cells in total cells (%) (T lymphocyte; [1]): 14.3% and 18.21% and 16% and 17.82% | CD8+cells in CFSE-cells (%) (T lymphocyte; [1]): 44.38% and 49.16% and 53.36% and 45.53% | CFSE- cells in total cells (%) (T lymphocyte; [1]): 7.99% and 11.49% and 11.51% and 10.07% | CD8+ cells in total cells (%) (T lymphocyte; Cancer donor 1, 3 day, S3-15 1): 15.56% and 19.33% and 22.39% and 19.99% | CD8+cells in CFSE-cells (%) (T lymphocyte; Cancer donor 1, 3 day, S3-15 1): 49.17% and 50.09% and 56.77% and 50.35% | CFSE- cells in total cells (%) (T lymphocyte; Cancer donor 1, 3 day, S3-15 1): 9.93% and 12.76% and 16.17% and 13.25% | CD8+ cells in total cells (%) (T lymphocyte; Cancer donor 1, 3 day, S3-15 5): 18.34% and 20.27% and 20.25% and 13.63% | CD8+cells in CFSE-cells (%) (T lymphocyte; Cancer donor 1, 3 day, S3-15 5): 56.42% and 54.7% and 55.11% and 51.68% | CFSE- cells in total cells (%) (T lymphocyte; Cancer donor 1, 3 day, S3-15 5): 12.69% and 14.11% and 13.95% and 8.72% | CD8+ cells in total cells (%) (T lymphocyte; [2]): 19.25% and 18.44% and 17.07% and 14.93% | CD8+cells in CFSE-cells (%) (T lymphocyte; [2]): 49.18% and 47.91% and 49.38% and 44.39% | CFSE- cells in total cells (%) (T lymphocyte; [2]): 12.56% and 11.54% and 10.9% and 9.12% | CD4+cells in total cells (%) (T lymphocyte; [3]): 68.58% and 70.02% and 62.64% and 62.46% | CD8+ cells in total cells (%) (T lymphocyte; [3]): 18.64% and 19.25% and 16.01% and 13.6% | CD8+cells in CFSE-cells (%) (T lymphocyte; [3]): 20.07% and 33.28% and 21.3% and 26.99% | CFSE- cells in total cells (%) (T lymphocyte; [3]): 25.93% and 25.33% and 20.8% and 18.33% | CD4+cells in total cells (%) (T lymphocyte; [4]): 63.51% and 67.38% and 70.68% and 68.88% | CD8+ cells in total cells (%) (T lymphocyte; [4]): 12.65% and 15.35% and 17.94% and 14.88% | CFSE- cells in total cells (%) (T lymphocyte; [4]): 21.49% and 20.46% and 25.21% and 18.85% | CD4+cells in total cells (%) (T lymphocyte; [5]): 68.14% and 68.06% and 70.19% and 66.42% | CD8+ cells in total cells (%) (T lymphocyte; [5]): 12.78% and 16.22% and 14.24% and 15.07% | CD8+cells in CFSE-cells (%) (T lymphocyte; [5]): 16% and 25.32% and 17.12% and 15.1% | CFSE- cells in total cells (%) (T lymphocyte; [5]): 22.52% and 22.58% and 17.52% and 21.09% | CD4+cells in total cells (%) (T lymphocyte; [6]): 72.21% and 54.01% and 61.69% and 61.53% | CD8+ cells in total cells (%) (T lymphocyte; [6]): 17.68% and 18.86% and 15.27% and 10.99% | CD8+cells in CFSE-cells (%) (T lymphocyte; [6]): 13.48% and 20.77% and 16.03% | CFSE- cells in total cells (%) (T lymphocyte; [6]): 22.22% and 20.93% and 15.94% | CD4+cells in total cells (%) (T lymphocyte; [7]): 25.25% and 26.11% and 25.81% and 23.7% | CD8+ cells in total cells (%) (T lymphocyte; [7]): 16% and 15.3% and 20.01% and 21.66% | CD8+cells in CFSE-cells (%) (T lymphocyte; [7]): 74.91% and 72.37% and 73.55% and 71.27% | CFSE- cells in total cells (%) (T lymphocyte; [7]): 16.3% and 15.37% and 18.72% and 19.27% | CD4+cells in total cells (%) (T lymphocyte; [8]): 25.53% and 24.4% and 24.71% and 25.6% | CD8+ cells in total cells (%) (T lymphocyte; [8]): 15.74% and 17.31% and 17.44% and 15.99% | CD8+cells in CFSE-cells (%) (T lymphocyte; [8]): 74.2% and 73.02% and 72.56% and 72.37% | CFSE- cells in total cells (%) (T lymphocyte; [8]): 15.48% and 17.29% and 17.32% and 15.2% | CD4+cells in total cells (%) (T lymphocyte; [9]): 25.95% and 25.52% and 26.76% and 24.64% | CD8+ cells in total cells (%) (T lymphocyte; [9]): 18.18% and 19.04% and 19.74% and 15.99% | CD8+cells in CFSE-cells (%) (T lymphocyte; [9]): 75% and 70.17% and 74.02% and 72.37% | CFSE- cells in total cells (%) (T lymphocyte; [9]): 16.98% and 16.53% and 18.76% and 15.2% | CD4+cells in total cells (%) (T lymphocyte; Healthy donor 1, 12 day, S3-15 10): 24.55% and 25.9% and 26.53% and 28.64%

Reference: publication PMC9468151, “Identification of a binding site on soluble RANKL that can be targeted to inhibit soluble RANK-RANKL interactions and treat osteoporosis” (Nature Communications, 2022)
